{"source": "patent US12138256B2", "about": "“Treatment of cardiopulmonary disorders” (Bayer Aktiengesellschaft, priority 2021, dated 2024)", "test_system": "thromboxane analog U46619 induced PAH in minipigs", "assay": "Haemodynamics (PAP, BP) in the anesthetized thromboxane challenged PAH minipig after inhaled (nebulized) application (C-2.1)", "format": "in vivo, Göttingen minipig", "conditions": "inhaled; for BP % change vs. baseline / PAP % change vs. baseline: 100 μg/kg nominal dose, individual animals", "summary_of_the_method": "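Anesthetized, ventilated Göttingen minipigs (2-6 kg) given continuous infusion (0.3-0.75 μg/kg/min) to raise mean PAP above 25 mmHg, dosing starting after a 30 min plateau. Compound in 1% DMSO/0.2% citric acid, pH 8, nebulized via Aeroneb Pro into the inspiratory arm (~7 min; stock 300 μg/kg). PAP by Swan-Ganz catheter, BP via carotid catheter.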", "note": "“And” between values parts separate entries of the source, which are not always exact repeats. Identical values can stand only once.", "data": [{"smiles": "O=C(O)c1ccc(CCN(CCc2cc(F)ccc2OCc2ccc(-c3nc4cc(Cl)ccc4o3)cc2)C2CCCc3nc(C(=O)O)ccc32)cc1", "note": "(single isomer, unassigned) [comparative example 4, 5-{[2-(4-Carboxyphenyl)ethyl][2-(2-{[4-(5-chloro-1,3-benzoxazol-2-yl)benzyl]oxy}-5-fluorophenyl)-ethyl]amino}-5,6,7,8-tetrahydroquinoline-2-carboxylic acid]", "values": [{"measurement": "BP % change vs. baseline", "setting": "time 80 min", "value": "101.1% and 101.2% and 101.0%"}, {"measurement": "PAP % change vs. baseline", "setting": "time 80 min", "value": "102.0% and 96.2% and 97.5%"}, {"measurement": "BP % change vs. baseline", "setting": "time 90 min", "value": "98.7% and 100.3% and 101.0%"}, {"measurement": "PAP % change vs. baseline", "setting": "time 90 min", "value": "100.2% (2×) and 102.2%"}, {"measurement": "BP % change vs. baseline", "setting": "time 100 min", "value": "101.1% and 100.3% and 98.3%"}, {"measurement": "PAP % change vs. baseline", "setting": "time 100 min", "value": "100.0% and 93.1% and 96.4%"}, {"measurement": "BP % change vs. baseline", "setting": "time 110 min", "value": "99.9% and 102.2% and 98.3%"}, {"measurement": "PAP % change vs. baseline", "setting": "time 110 min", "value": "97.2% and 88.9% and 89.8%"}, {"measurement": "BP % change vs. baseline", "setting": "time 120 min", "value": "101.1% and 101.2% and 101.9%"}, {"measurement": "PAP % change vs. baseline", "setting": "time 120 min", "value": "86.5% and 86.2% and 86.0%"}, {"measurement": "BP % change vs. baseline", "setting": "time 130 min", "value": "99.9% and 99.4% and 100.1%"}, {"measurement": "PAP % change vs. baseline", "setting": "time 130 min", "value": "77.5% and 78.6% and 84.6%"}, {"measurement": "BP % change vs. baseline", "setting": "time 140 min", "value": "99.9% and 99.4% and 100.1%"}, {"measurement": "PAP % change vs. baseline", "setting": "time 140 min", "value": "76.3% and 77.7% and 81.3%"}, {"measurement": "BP % change vs. baseline", "setting": "time 150 min", "value": "99.9% and 98.5% and 100.1%"}, {"measurement": "PAP % change vs. baseline", "setting": "time 150 min", "value": "77.3% and 75.0% and 78.7%"}, {"measurement": "BP % change vs. baseline", "setting": "time 160 min", "value": "99.9% and 96.7% and 99.2%"}, {"measurement": "PAP % change vs. baseline", "setting": "time 160 min", "value": "75.5% and 71.4% and 77.3%"}, {"measurement": "BP % change vs. baseline", "setting": "time 170 min", "value": "101.1% and 97.6% and 99.2%"}, {"measurement": "PAP % change vs. baseline", "setting": "time 170 min", "value": "72.1% and 71.9% and 75.1%"}, {"measurement": "BP % change vs. baseline", "setting": "time 180 min", "value": "102.3% and 95.8% and 99.2%"}, {"measurement": "PAP % change vs. baseline", "setting": "time 180 min", "value": "74.0% and 68.0% and 75.9%"}, {"measurement": "BP % change vs. baseline", "setting": "time 190 min", "value": "102.3% and 95.8% and 99.2%"}, {"measurement": "PAP % change vs. baseline", "setting": "time 190 min", "value": "74.5% and 65.0% and 77.1%"}, {"measurement": "BP % change vs. baseline", "setting": "time 200 min", "value": "102.3% and 94.0% and 99.2%"}, {"measurement": "PAP % change vs. baseline", "setting": "time 200 min", "value": "70.1% and 70.6% and 77.2%"}, {"measurement": "BP % change vs. baseline", "setting": "time 210 min", "value": "103.5% and 94.0% and 99.2%"}, {"measurement": "PAP % change vs. baseline", "setting": "time 210 min", "value": "70.8% and 65.6% and 76.8%"}, {"measurement": "BP % change vs. baseline", "setting": "time 220 min", "value": "105.9% and 95.8% and 98.3%"}, {"measurement": "PAP % change vs. baseline", "setting": "time 220 min", "value": "77.8% and 66.7% and 75.3%"}, {"measurement": "BP % change vs. baseline", "setting": "time 230 min", "value": "107.1% and 94.9% and 97.4%"}, {"measurement": "PAP % change vs. baseline", "setting": "time 230 min", "value": "82.5% and 71.3% and 73.9%"}, {"measurement": "BP % change vs. baseline", "setting": "time 240 min", "value": "107.1% and 94.0% and 97.4%"}, {"measurement": "PAP % change vs. baseline", "setting": "time 240 min", "value": "81.0% and 67.4% and 75.0%"}, {"measurement": "BP % change vs. baseline", "setting": "time 250 min", "value": "109.4% and 94.9% and 98.3%"}, {"measurement": "PAP % change vs. baseline", "setting": "time 250 min", "value": "79.0% and 72.2% and 75.0%"}, {"measurement": "BP % change vs. baseline", "setting": "time 260 min", "value": "107.1% and 94.9% and 98.3%"}, {"measurement": "PAP % change vs. baseline", "setting": "time 260 min", "value": "75.0% and 72.7% and 76.7%"}, {"measurement": "BP % change vs. baseline", "setting": "time 270 min", "value": "107.1% and 94.9% and 97.4%"}, {"measurement": "PAP % change vs. baseline", "setting": "time 270 min", "value": "70.3% and 71.1% and 78.4%"}, {"measurement": "BP % change vs. baseline", "setting": "time 280 min", "value": "107.1% and 94.9% and 99.2%"}, {"measurement": "PAP % change vs. baseline", "setting": "time 280 min", "value": "65.8% and 75.6% and 79.7%"}, {"measurement": "BP % change vs. baseline", "setting": "time 290 min", "value": "107.1% and 94.0% and 98.3%"}, {"measurement": "PAP % change vs. baseline", "setting": "time 290 min", "value": "68.3% and 73.4% and 79.9%"}, {"measurement": "BP % change vs. baseline", "setting": "time 300 min", "value": "107.1% and 94.9% and 99.2%"}, {"measurement": "PAP % change vs. baseline", "setting": "time 300 min", "value": "69.1% and 76.2% and 79.6%"}, {"measurement": "BP % change vs. baseline", "setting": "time 310 min", "value": "107.1% and 94.9% and 98.3%"}, {"measurement": "PAP % change vs. baseline", "setting": "time 310 min", "value": "62.8% and 79.9% and 79.5%"}, {"measurement": "BP % change vs. baseline", "setting": "time 320 min", "value": "104.7% and 94.9% and 99.2%"}, {"measurement": "PAP % change vs. baseline", "setting": "time 320 min", "value": "61.8% and 76.5% and 81.3%"}, {"measurement": "BP % change vs. baseline", "setting": "time 330 min", "value": "107.1% and 94.0% and 101.0%"}, {"measurement": "PAP % change vs. baseline", "setting": "time 330 min", "value": "63.1% and 77.9% and 83.3%"}, {"measurement": "lung selectivity", "setting": "nominal dose of 100 μg/kg", "value": "good lung selectivity"}]}]}
